Numbered stars: 1 amine (or outer) side, 2 acyl side, 3 side chain; on linkers, the order of the positions; unused ones are H or OH. Bridge positions count the residues as written; N and C are the ends. Square brackets hold non-standard residues; d marks the D form. Peptide text beside a SMILES is read from it. dPhe(4-tBu) = CC(C)(C)c1ccc(C[C@@H](N)C(=O)O)cc1; dPhe(4-Cl) = N[C@H](Cc1ccc(Cl)cc1)C(=O)O; dPhe(4-F) = N[C@H](Cc1ccc(F)cc1)C(=O)O; d2Nal = N[C@H](Cc1ccc2ccccc2c1)C(=O)O; Maleoyl = O=C(/C=C\C(=O)[*:2])[*:1]; dBta = N[C@H](Cc1csc2ccccc12)C(=O)O; Suc = O=C(CCC(=O)[*:2])[*:1]; Dap = NC[C@H](N)C(=O)O
Tests used:
[1] = rats; cited from earlier work
[2] = biological target: T1, human MC4 receptor (Homo sapiens, UniProt P32245); assay: Competitive binding assay, human MC4 receptor; conditions: for IC50: CHO cell membranes expressing human MC4 receptor, 200 pM [125I]-NDP-α-MSH, three independent experiments, read-out: hMC-4R (binding data); for 3:4: selectivity ratio of hMC-3R to hMC-4R binding values; for 5:4: selectivity ratio of hMC-5R to hMC-4R binding values
T1 construct: expressed in transfected cells; host or cells: Chinese hamster ovary (CHO) cells
Description: (§1) The peptides of the present invention were evaluated for antagonist activity in receptor binding assay. Crude membrane preparations were obtained from Chinese hamster ovary cells expressing human MC3, MC4, and MC5 receptors. Cells were rinsed with phosphate-buffered saline (PBS) lacking CaCl2 or MgCl2 (Life Technologies, Gaithersburg, Md., USA), and then detached with enzyme-free dissociation media (Specialty Media, Lavellette, N.J., USA). Cells were pelleted at 2800×g for 10 min and resuspended in membrane buffer (20 mM Tris, pH 7.2, 5 mM ethylenediaminetetraacetic acid) with 5 μg/ml leupeptin, 5 μg/ml aprotinin, 40 μg/ml bacitracin, and 25 μg/ml pefabloc (Boehringer Mannheim). The cells were […] with 10 strokes by using a motor-driven Teflon-coated pestle in a glass homogenizer at low speed. The resulting cell suspension was centrifuged at 4100×g, 4° C., for 20 min. The pellet was resuspended in fresh membrane buffer with protease inhibitors, aliquoted, snap-frozen in liquid nitrogen, and stored at −80° C. The resulting crude membranes were titrated to determine the optimal level necessary for performing binding studies.
(§2) Binding reactions (total volume=250 μl) contained MBB (50 mM Tris, pH 7.2, 2 mM CaCl2, 1 mM MgCl2), 0.1% bovine serum albumin, crude membranes prepared from cells expressing human MC3, MC4, or MC5 receptor, 200 pM of [125I]-NDP-α-MSH (Amersham, Arlington Heighs, Ill., USA), and increasing concentrations of unlabeled test compounds dissolved in dimethylsulfoxide (final concentration=2%). Reactions were incubated for 1 h without shaking and then filtered through 96-well filter plates (Packard), presoaked in 1% polyethyleneimine. Filters were washed 3 times with TNE buffer (50 mM Tris, pH 7.4, 5 mM ethylene-diaminetetraacetic acid, 150 mM NaCl), dried and counted by using Microscint-20 in a Topcount scintillation counter (Packard).

[3] = biological target: T2, human MC5 receptor (Homo sapiens, UniProt P33032); assay: Competitive binding assay, human MC5 receptor; conditions: CHO cell membranes expressing human MC5 receptor; 200 pM [125I]-NDP-α-MSH; three independent experiments; read-out: hMC-5R (binding data)
T2 construct: expressed in transfected cells; host or cells: Chinese hamster ovary (CHO) cells
Description: as §1, §2

[4] = biological target: human MC3 receptor (Homo sapiens, UniProt P41968); assay: Competitive binding assay, human MC3 receptor; conditions: hMC-3R (binding data), CHO cell membranes expressing human MC3 receptor; 200 pM [125I]-NDP-α-MSH; three independent experiments
human MC3 receptor, sequence (P41968 whole entry): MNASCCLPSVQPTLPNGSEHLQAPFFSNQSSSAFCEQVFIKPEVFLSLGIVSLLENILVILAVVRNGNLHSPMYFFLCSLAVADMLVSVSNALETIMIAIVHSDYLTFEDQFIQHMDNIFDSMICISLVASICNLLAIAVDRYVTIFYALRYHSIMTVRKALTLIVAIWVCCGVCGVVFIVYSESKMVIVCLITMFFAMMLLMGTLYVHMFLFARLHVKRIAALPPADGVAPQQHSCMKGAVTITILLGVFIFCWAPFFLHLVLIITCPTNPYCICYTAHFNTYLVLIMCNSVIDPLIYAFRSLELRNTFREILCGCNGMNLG

T1 sequence (P32245 whole entry): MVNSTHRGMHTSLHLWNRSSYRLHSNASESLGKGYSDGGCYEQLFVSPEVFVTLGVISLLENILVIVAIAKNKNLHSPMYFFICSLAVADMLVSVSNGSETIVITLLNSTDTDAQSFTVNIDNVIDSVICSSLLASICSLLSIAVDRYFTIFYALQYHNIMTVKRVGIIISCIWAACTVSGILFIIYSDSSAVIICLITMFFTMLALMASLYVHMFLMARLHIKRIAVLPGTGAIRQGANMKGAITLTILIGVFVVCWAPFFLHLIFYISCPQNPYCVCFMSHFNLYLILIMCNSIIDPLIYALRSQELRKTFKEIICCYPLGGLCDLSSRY
T2 sequence (P33032 whole entry): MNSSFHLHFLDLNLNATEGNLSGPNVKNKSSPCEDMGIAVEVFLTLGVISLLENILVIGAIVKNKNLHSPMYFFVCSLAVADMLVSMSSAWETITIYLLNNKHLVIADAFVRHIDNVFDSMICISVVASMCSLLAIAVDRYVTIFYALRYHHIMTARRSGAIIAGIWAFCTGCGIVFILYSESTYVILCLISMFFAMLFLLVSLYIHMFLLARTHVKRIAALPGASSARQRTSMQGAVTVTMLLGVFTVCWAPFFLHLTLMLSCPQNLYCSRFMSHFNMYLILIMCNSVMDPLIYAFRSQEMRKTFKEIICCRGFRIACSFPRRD

IC50 [2] [µM]	3:4 [2]	5:4 [2]	IC50 [3] [µM]	IC50 [4] [µM]	Compound	body weight [1]	food intake [1]
0.046 ± 0.006	37	54	2.5 ± 1	1.5 ± 1.1	CC(C)(C)c1ccc(C[C@H]2NC(=O)CCC(=O)NCCCC[C@@H](C(N)=O)NC(=O)[C@H](Cc3c[nH]c4ccccc34)NC(=O)[C@H](CCCNC(=N)N)NC2=O)cc1 [Example 14] ([dPhe(4-tBu)]RWK-NH2; linker N-4 via Suc)		
0.07 ± 0.01	69	143	10 ± 2	4.8 ± 1	N=C(N)NCCC[C@@H]1NC(=O)[C@@H](Cc2ccc(F)cc2)NC(=O)CCC(=O)NCCCC[C@@H](C(N)=O)NC(=O)[C@H](Cc2c[nH]c3ccccc23)NC1=O [Example 19] ([dPhe(4-F)]RWK-NH2; linker N-4 via Suc)		
0.0016 ± 0.0002	168	337	0.54 ± 0.23	0.27 ± 0.024	N=C(N)NCCC[C@@H]1NC(=O)[C@@H](Cc2ccc3ccccc3c2)NC(=O)C2CC2C(=O)NCCCC[C@@H](C(N)=O)NC(=O)[C@H](Cc2c[nH]c3ccccc23)NC1=O (single isomer, unassigned) [11 b]		
0.001 ± 0.0001	52	200	0.2 ± 0.0036	0.052 ± 0.0079	N=C(N)NCCC[C@@H]1NC(=O)[C@@H](Cc2ccc3ccccc3c2)NC(=O)[C@H](Cc2c[nH]cn2)NC(=O)CCC(=O)NCCCC[C@@H](C(N)=O)NC(=O)[C@H](Cc2c[nH]c3ccccc23)NC1=O [Example 7] (H[d2Nal]RWK-NH2; linker N-5 via Suc)		
0.0047 ± 0.0006	46	234	1.1 ± 0.15	0.22 ± 0.0067	CC(=O)N[C@H]1CC(=O)NCCCC[C@@H](C(N)=O)NC(=O)[C@H](Cc2c[nH]c3ccccc23)NC(=O)[C@H](CCCNC(=N)N)NC(=O)[C@@H](Cc2ccc3ccccc3c2)NC1=O [Example 6] (Ac-D[d2Nal]RWK-NH2; lactam 1-5)		

The remaining lines, values behind:

Compound	IC50 [2] [µM]	3:4 [2]	5:4 [2]	IC50 [3] [µM]	IC50 [4] [µM]	body weight [1]	food intake [1]
HS024						increase	increase
N=C(N)NCCC[C@@H]1NC(=O)[C@@H](Cc2ccc(Cl)cc2)NC(=O)CCC(=O)NCCCC[C@@H](C(N)=O)NC(=O)[C@H](Cc2c[nH]c3ccccc23)NC1=O [Example 17] ([dPhe(4-Cl)]RWK-NH2; linker N-4 via Suc)	0.0035 ± 0.0003	163	126	0.44 ± 0.24	0.57 ± 0.29		
NCCCC[C@@H]1NC(=O)[C@@H](Cc2ccc3ccccc3c2)NC(=O)CCC(=O)NCCCC[C@@H](C(N)=O)NC(=O)[C@H](Cc2c[nH]c3ccccc23)NC1=O [Example 20] ([d2Nal]KWK-NH2; linker N-4 via Suc)	0.044 ± 0.007	84	48	2.1 ± 0.5	3.7 ± 1.2		
MTII							reduced
SHU9119						increased	increased
N=C(N)NCCC[C@@H]1NC(=O)[C@@H](Cc2ccc3ccccc3c2)NC(=O)[C@H](Cc2c[nH]cn2)NC(=O)[C@@H](N)CC(=O)NCCCC[C@@H](C(N)=O)NC(=O)[C@H](Cc2c[nH]c3ccccc23)NC1=O [Example 3]	0.0017 ± 0.0008	9	14	0.024 ± 0.0067	0.016 ± 0.0052		
N=C(N)NCCC[C@@H]1NC(=O)[C@@H](Cc2ccc3ccccc3c2)NC(=O)[C@H](Cc2c[nH]cn2)NC(=O)CCC(=O)NC[C@@H](C(N)=O)NC(=O)[C@H](Cc2c[nH]c3ccccc23)NC1=O [Example 8] (H[d2Nal]RW[Dap]-NH2; linker N-5 via Suc)	0.0002 ± 3e-05	95	355	0.071 ± 0.0084	0.019 ± 0.0015		
N=C(N)NCCC[C@@H]1NC(=O)[C@@H](Cc2ccc3ccccc3c2)NC(=O)[C@H](CCCCN)NC(=O)CCC(=O)NCCCC[C@@H](C(N)=O)NC(=O)[C@H](Cc2c[nH]c3ccccc23)NC1=O [Example 24] (K[d2Nal]RWK-NH2; linker N-5 via Suc)	0.04 ± 0.005	75	250	10 ± 8.7	3 ± 1.1		
N=C(N)NCCC[C@@H]1NC(=O)[C@@H](Cc2ccc3ccccc3c2)NC(=O)C2CC2C(=O)NCCCC[C@@H](C(N)=O)NC(=O)[C@H](Cc2c[nH]c3ccccc23)NC1=O (single isomer, unassigned) [11 a]	0.0006 ± 0.0001	216	316	0.19 ± 0.037	0.13 ± 0.016		
N=C(N)NCCC[C@@H]1NC(=O)[C@@H](Cc2csc3ccccc23)NC(=O)CCC(=O)NCCCC[C@@H](C(N)=O)NC(=O)[C@H](Cc2c[nH]c3ccccc23)NC1=O [Example 16] ([dBta]RWK-NH2; linker N-4 via Suc)	0.069 ± 0.012	81	44	3 ± 1	5.6 ± 3.9		
N=C(N)NCCC[C@@H]1NC(=O)[C@@H](Cc2ccc3ccccc3c2)NC(=O)/C=C\C(=O)NCCCC[C@@H](C(N)=O)NC(=O)[C@H](Cc2c[nH]c3ccccc23)NC1=O [Example 12] ([d2Nal]RWK-NH2; linker N-4 via Maleoyl)		300	270				

Reference: US6693165B2 (Merck & Co., Inc., priority 2000, dated 2004)
